The values that follow come from patent US20050222173A1, “Triazolopyrimidines” (priority 2002, published 2005).

Each structure is given as a SMILES string.

Data set [1] concerns Pyricularia oryzae. The format is in vivo. Conditions: rice, protective, application rate 250 g/ha, evaluation 6 days after inoculation.
Data set [2] is described as follows: physchem.
The test system of data set [3] is Podosphaera leucotricha. As to the kind of experiment: Podosphaera test (apple)/protective. The format is in vivo. As to conditions: Podosphaera leucotricha, 240 h, protective, application rate 100 g/ha, evaluation 10 days after inoculation, read-out: Efficacy in %. The procedure:
Podosphaera Test (Apple)/Protective [table] […] To test for protective activity, young plants are sprayed with the preparation of active compound at the stated application rate. After the spray coating has dried on, the plants are inoculated with an aqueous spore suspension of the apple mildew pathogen Podosphaera leucotricha. The plants are then placed in a greenhouse at about 23° C. and a relative atmospheric humidity of about 70%.

The test system of data set [4] is Venturia inaequalis. Description: Venturia test (apple)/protective. The format is in vivo. Conditions: protective, application rate 100 g/ha, evaluation 10 days after inoculation; for pest or weed control at 100 g/ha: Venturia inaequalis, 240 h, read-out: Efficacy in %. The procedure: Venturia Test (Apple)/Protective [table] To produce a suitable preparation of active compound, 1 part by weight of active compound is mixed with the stated amounts of solvent and emulsifier, and the concentrate is diluted with water to the desired concentration. To test for protective activity, young plants are sprayed with the preparation of active compound at the stated application rate. […] The plants are then placed in a greenhouse at about 21° C. and a relative atmospheric humidity of about […].

The compound `C[C@H](Nc1c(-c2ccccc2Cl)c(Cl)nc2nc(Cl)nn12)C(F)(F)F` returned an Efficacy in % in data set [1] of 100%. Compound `CC(C)Nc1c(-c2ccccc2Cl)c(Cl)nc2nc(Cl)nn12` [Example 1, N-[2,5-dichloro-6-(2-chlorophenyl)[1,2,4]triazolo[1,5-a]pyrimidin-7-yl]-N-isopropylamine] showed a chromatographic logP in data set [2] of 3.43. `Clc1nc2nc(Cl)c(-c3ccccc3Cl)c(Cl)n2n1` [Example 177, 2,5,7-trichloro-6-(2-chlorophenyl)[1,2,4]triazolo[1,5-a]pyrimidine]: in data set [2], the chromatographic logP turned out to be 3.37. The chromatographic logP values of the last two compounds are within 0.2 log units of each other.

For `Clc1ccccc1-c1c(Cl)nc2nc(Br)nn2c1Cl` [Example 178, 2-Bromo-5,7-dichloro-6-(2-chlorophenyl)[1,2,4]triazolo[1,5-a]pyrimidine], in data set [2], the chromatographic logP is 3.39. Turning to `Fc1cc(F)c(-c2c(Cl)nc3nc(Cl)nn3c2Cl)c(F)c1` [Example 179, 2,5,7-Trichloro-6-(2,4,6-trifluorophenyl)[1,2,4]triazolo[1,5-a]pyrimidine], the chromatographic logP in data set [2] came out at 3.28. Turning to `Fc1cc(F)c(-c2c(Cl)nc3nc(Br)nn3c2Cl)c(F)c1` [Example 180, 2-Bromo-5,7-dichloro-6-(2,4,6-trifluorophenyl)[1,2,4]triazolo[1,5-a]pyrimidine], the chromatographic logP in data set [2] worked out at 3.27. With `COc1nc2nc(Cl)c(-c3c(F)cc(F)cc3OC)c(NC(C)C(F)(F)F)n2n1` (centres unmarked) [drawing 49], the pest or weed control at 100 g/ha in data set [3] was found to be 83%. With `C[C@@H](Nc1c(-c2ccccc2Cl)c(Cl)nc2nc(Cl)nn12)C(F)(F)F` [drawing 50], the pest or weed control at 100 g/ha in data set [4] was found to be 100%.

With `C[C@@H](Nc1c(-c2c(F)cc(F)cc2F)c(Cl)nc2nc(Cl)nn12)C(F)(F)F` [drawing 51], the pest or weed control at 100 g/ha in data set [4] came to 100%.

For the compound `CC(C)Nc1c(-c2ccccc2Cl)c(Cl)nc2nc(Br)nn12` [drawing 52], in data set [4], the pest or weed control at 100 g/ha came out at 98%. For the compound `CCC(C)CNc1c(-c2c(F)cc(F)cc2F)c(Cl)nc2nc(Cl)nn12` (centres unmarked) [drawing 53], the pest or weed control at 100 g/ha in data set [4] was found to be 83%.

Consider `CCC(C)CNc1c(-c2c(F)cc(F)cc2F)c(Cl)nc2nc(Br)nn12` (centres unmarked) [drawing 54], for which, in data set [4], the pest or weed control at 100 g/ha was found to be 80%. On to `Clc1nc2nc(Cl)c(-c3ccccc3Cl)c(NCC3CC3)n2n1` [drawing 55], for which the pest or weed control at 100 g/ha in data set [4] was found to be 96%. Still for that read-out and setting: the value for `C[C@H](Nc1c(-c2c(F)cc(F)cc2F)c(Cl)nc2nc(Br)nn12)C(F)(F)F` [drawing 56] was 99%; that for `CC1CCCN(c2c(-c3c(F)cc(F)cc3F)c(Cl)nc3nc(Cl)nn23)C1` (centres unmarked) [drawing 57] was 96%.

For the compound `CC(C)CNc1c(-c2ccc(F)cc2F)c(Cl)nc2nc(Cl)nn12` [drawing 58], the pest or weed control at 100 g/ha in data set [4] is 85%.

Regarding `C[C@H](Nc1c(-c2c(F)cccc2Cl)c(Cl)nc2nc(Cl)nn12)C(F)(F)F` [drawing 59], in data set [4], the pest or weed control at 100 g/ha amounted to 100%. As to `Fc1ccc(-c2c(Cl)nc3nc(Cl)nn3c2N[C@@H](Cl)C(F)(F)F)c(F)c1` [drawing 60], the pest or weed control at 100 g/ha in data set [4] came out at 100%.

Consider `Fc1cccc(Cl)c1-c1c(Cl)nc2nc(Cl)nn2c1N1CCCC1` [drawing 61], for which the pest or weed control at 100 g/ha in data set [4] worked out at 85%. As to `C=CCN(CC)c1c(-c2c(F)cccc2Cl)c(Cl)nc2nc(Cl)nn12` [drawing 62], the pest or weed control at 100 g/ha in data set [4] worked out at 96%. Take `CC(C)CNc1c(-c2c(F)cccc2Cl)c(Cl)nc2nc(Cl)nn12` [drawing 63]: the pest or weed control at 100 g/ha in data set [4] came out at 91%. On the same count and under the same terms, to `Fc1cccc(Cl)c1-c1c(Cl)nc2nc(Cl)nn2c1NCC1CC1` [drawing 64] belongs 99%. Consider `COCCN(C)c1c(-c2c(F)cccc2Cl)c(Cl)nc2nc(Cl)nn12` [drawing 65], for which, in data set [4], the pest or weed control at 100 g/ha came out at 96%. The compound `C=C(C)CN(C)c1c(-c2c(F)cccc2Cl)c(Cl)nc2nc(Cl)nn12` [drawing 66] displayed an Efficacy in % in data set [4] of 84%. In the case of `COc1nc2nc(Cl)c(-c3c(F)cc(F)cc3OC)c(NC(C)C(F)(F)F)n2n1` (centres unmarked) [drawing 67], the pest or weed control at 100 g/ha in data set [4] is 99%. Turning to `C[C@H](Nc1c(-c2c(F)cccc2Cl)c(Cl)nc2nc(Cl)nn12)C(F)(F)F` [drawing 69], the Efficacy in % in data set [1] is 100%.

For orientation: chromatographic logP means lipophilicity estimated from chromatographic retention.
